Laboratory results as given in article PMC9975698, “Hyperoside alleviates toxicity of β-amyloid via endoplasmic reticulum-mitochondrial calcium signal transduction cascade in APP/PS1 double transgenic Alzheimer's disease mice” (Redox Biology, 2023).
Where two headings read alike, the source gives them in different places.

Key:
[1] = Pharmacokinetics in serum after IV or IN administration; type: in vivo; conditions: 20 mg/kg, mice; for AUC(0-t) / Cmax / Tmax / k el / half-life: mouse, serum; for k el: read-out: Serum Ke (converted); for half-life: read-out: Serum t1/2 (converted)
Experimental: After tail vein injection or nasal administration, blood was collected at 5, 15 and 30 min, 1, 2, 4, 8, 12, 24, 48, 72, 120 and 168 h, for immediate centrifugation at 14,000 rpm for 5 min. The serum was harvested and stored at −20 °C until further processing. Brain tissue was collected and was thoroughly rinsed in saline to eliminate blood and blotted dry with filter paper. Each tissue sample was homogenized in saline (1:5, w/v) and stored at −20 °C until analysis. 50 μL of serum or 100 μL of brain tissue was put in a 1.5 mL EP tube, followed by the addition of 20 μL of internal standard solution (10 μM ISO). The protein was precipitated with 1 mL of ethyl acetate, vortexed for 5 min and centrifuged at 20,000 g (4 °C and 10 min). The supernatant solution was nitrogen blown to dry and re-suspended with 100 μL of 50% acetonitrile for centrifugation again. The supernatant was taken for analysis by using LC-MS/MS. HYP content was quantified using UHPLC-MS/MS system, which includes Agilent 1290 Infinity UHPLC, and Agilent 6460 Triple Quadrupole, equipped with an electrospray ionization interface used to generate positive ions for the determination of HYP. The compounds were analyzed by using the Agilent Zorbax Eclipse Plus C-18 column with a particle size of […] (flow rate: 0.35 mL/min). The mobile phase was set as follows: mobile phase A (0.1% formic acid in water) and mobile phase B (0.1% formic acid in ACN): 0–3 min, 10–30% B; 3–4 min, 70% B; 4–5 min, 30–70% B; 5–6 min, 70-10% B. The column and auto-sampler temperature were maintained at 30 °C and 4 °C, respectively. Data were analyzed by using Agilent MassHunter Workstation software B.01.03. The gas temperature was set at 300 °C with a flow rate of 11 L/min. Gases were set at 30 psi for the nebulizer, capillary, at 4000 V. For the HYP, the fragment was 170. The collision energy was set at 30; The mass transitions were as follows based on multiple reaction monitoring: m/z 464.38 → 299.9. For the Isorhamnetin (ISO), the fragment was 150. The collision energy was set at 30; The mass transitions were as follows based on multiple reaction monitoring: m/z 315.4 → 300.1, The measurements of HYP were done using the standard and linear least-squares regression curve.

[2] = test system: APP/PS1 mice; assay: GFAP immunofluorescent staining of brain tissues; type: in vivo; conditions: cortex and hippocampus, HYP nasal, 8 weeks
Experimental: All animal care and experimental procedures were performed in accordance with the “Institutional Animal Care and User Committee Guidelines” of the Macau University of Science and Technology. APP/PSEN1 (APP/PS1) mice (N000175) were purchased from the Nanjing Institute of Biomedical Sciences, Nanjing University, China, weighing 25 ± 5 g. The animals were housed in a temperature-controlled room with a 12 h light/dark cycle and given ad libitum food and water. Male mice were randomly divided into the following 6 experimental groups. (a) wild-type group (n = 6), (b) APP/PS1 group (n = 6), (c) HYP (20 mg/kg group) (n = 7), (d) HYP (40 mg/kg) group (n = 8), (e) HYP (80 mg/kg) group (n = 8) and (f) memantine (MEM) (10 mg/kg) positive control group (n = 8). HYP was dissolved in the solvent containing 10% DMSO, 40% PEG300 and 5% Tween-80 in PBS, and administrated via nasal injection for every 3 days with a volume of 0.5 μL/g of body weight for 8 consecutive weeks. Brain tissues from all treatment groups were fixed and embedded in paraffin for microtome sectioning and immunofluorescence staining. […] The coverslips were then mounted with FluorSave™ mounting media (Calbiochem, San Diego, CA, USA) for fluorescence imaging. […]

[3] = test system: HT22 cells; assay: Real time mitochondrial membrane potential (rhodamine 123); type: cell-based; conditions: rhodamine 123-stained HT22 cells, Aβ 30 μM with HYP 20, 40, 80 μM
From the text: Disruption of RyR2 regulation in the ER mediates the most important signal transduction cascade responses associated with AD [24]. RyR2 channels are implicated in many cellular functions, particularly mitochondrial metabolism. As confirmed in previous section (Fig. 9G), the expression of mRNA for MCU was decreased in RyR2 knockdown cells. […] Therefore, the role of HYP in regulating Aβ-induced ER-mitochondrial Ca^2+ homeostasis and apoptosis were further validated. […] It was reported that mitochondrial calcium level affects cellular energy by activating oxidative metabolism, mitochondrial respiration and ATP synthesis. […] To further verify the result, the membrane potential was stained with a more sensitive dye, JC-1 (Fig. 10C). JC-1 is a dual-emission mitochondrial membrane potential sensing dye, which is accumulated and aggregated in polarized (normal) mitochondria with excitation and emission in the red spectrum at ∼590 nm. […] It is noteworthy that increased mitochondrial calcium influx can trigger apoptosis. To further explore the protective role of HYP in Aβ -induced neuronal cell death, HT22 cells were co-treated with Aβ aggregates and HYP for 24 h. The expression level of selected apoptotic markers including Bcl-2, Bax and cyto-c were detected by Western blot (Fig. 10E).

Structure (SMILES): O=c1c(O[C@@H]2O[C@H](CO)[C@H](O)[C@H](O)[C@H]2O)c(-c2ccc(O)c(O)c2)oc2cc(O)cc(O)c12 [HYP, Quercetin-3-O-β-D-galactopyranoside]
- Serum F (AUCIN/AUCIV ratio) ([1]; IN): 23.2%
- AUC(0-t) ([1]; inhaled or intranasal, IN): 5500 ± 1220 µg·h/mL
- Cmax ([1]; inhaled or intranasal, IN): 300 ± 102 µg/mL
- Tmax ([1]; inhaled or intranasal, IN): 0.5 h
- k el ([1]; inhaled or intranasal, IN): 1.67e-05 s⁻¹
- half-life ([1]; inhaled or intranasal, IN): 25.6 ± 12.5 h
- AUC(0-t) ([1]; IV): 23700 ± 1740 µg·h/mL
- Cmax ([1]; IV): 1160 ± 268 µg/mL
- Tmax ([1]; IV): 0.08 h
- k el ([1]; IV): 0.000103 s⁻¹
- half-life ([1]; IV): 1.85 ± 1.25 h
- level of GFAP [2]: decreased the level of GFAP in both the cortex and hippocampus
- mitochondrial membrane potential, real time [3]: attenuated the decrease of membrane potential triggered by Aβ
